As a reminder, the EC50 is the concentration needed to bring the measured effect to its halfway point. The IC50 is the concentration needed to halve the response being measured.

For series [1], the system named is RVFV strain MP-12. Nature of the series: microbe, parasite or virus in culture. The series is classed as cell-based, Rift Valley fever virus.
Another series concerns RVFV MP-12. Nature of the series: microbe, parasite or virus in culture. The series is classed as cell-based, Rift Valley fever virus. As to conditions: read-out: Estimated EC50.
Series [2] concerns RVFV strain MP-12. Kind of series: microbe, parasite or virus in culture. The series is classed as cell-based, Rift Valley fever virus. Conditions: Rift Valley fever virus, A549, 24 h, read-out: A549 EC50.
In the next series the test system is RVFV ZH501. Nature of the series: microbe, parasite or virus in culture. In kind it is cell-based, Rift Valley fever virus.
Another series has as its system LACV. Nature of the series: microbe, parasite or virus in culture. In kind it is cell-based, La Crosse virus. Conditions: for EC50: read-out: LACV EC50.
The next series relates to ZIKV. Nature of the series: microbe, parasite or virus in culture. In kind it is cell-based, Zika virus. Conditions: for EC50: read-out: ZIKV EC50.
A further series deals with T1, Human RNase H1 (Homo sapiens, UniProt O60930).
T1 construct: made in house; host or cells: E. coli
T1 sequence (O60930 1-286): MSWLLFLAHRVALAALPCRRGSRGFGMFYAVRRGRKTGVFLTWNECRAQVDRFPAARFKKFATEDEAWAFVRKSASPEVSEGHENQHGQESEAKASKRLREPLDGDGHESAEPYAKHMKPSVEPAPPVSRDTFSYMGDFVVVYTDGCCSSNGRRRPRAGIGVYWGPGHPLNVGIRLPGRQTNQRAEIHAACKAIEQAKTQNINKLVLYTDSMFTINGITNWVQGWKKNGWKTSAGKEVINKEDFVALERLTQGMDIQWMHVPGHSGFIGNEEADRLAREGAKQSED
Nature of the series: biochemical.

The subject of a further series is Staphylo-coccus spp. Kind of series: organism not typed. As to conditions: read-out: Staphylo-coccus spp. (MIC80, μM). The series is classed as cell-based.
Another series relates to E. coli. Kind of series: microbe, parasite or virus in culture. The series is classed as cell-based. Conditions: Escherichia coli, read-out: E. coli (MIC80, μM).
In the next series the test system is C. neoformans. Nature of the series: microbe, parasite or virus in culture. In kind it is cell-based. As to conditions: Cryptococcus neoformans, read-out: C. neoformans (MIC80, μM).
Series [3] in a line: in vitro. As to conditions: African green monkey.
Series [4] is described as follows: in vitro. Conditions: human.
Series [5] in a line: in vitro. As to conditions: human. The source holds these as a separate data set.
[6] abbreviates: Rift Valley fever virus, Vero, 24 h.
[7] abbreviates: Rift Valley fever virus, Vero, read-out: Vero EC50.
Where [8] appears, read: Rift Valley fever virus, Vero, 18 h.
The mark [9] stands for this setting: La Crosse virus, Vero C1008, 24 h.

Converted amounts (≈) assume the structure as drawn. “And” between values parts separate entries of the source, which are not always exact repeats. Equal values may be shown once. Read-outs that look alike come from different tables or passages of the source. Some results are limits rather than exact numbers.

In the case of `Cc1cc(O)c(=O)c(O)cc1C(=O)c1cccs1` [Compound 308], the EC50 in the series on RVFV strain MP-12 [1] (setting [6]) was 1.2 µM; in the series with RVFV strain MP-12 [1] (Rift Valley fever virus, Vero, read-out: RVFV (EC50, μM)), 1.16 µM; in the series with RVFV strain MP-12 [1] (setting [7]) it was 1.2 µM; in the series with RVFV MP-12 (Rift Valley fever virus, Vero), 1.77 µM; in the series with RVFV strain MP-12 [2], 8.4 µM; in the series on RVFV ZH501 (setting [8]), 54 µM. Besides, the EC50 was 15.1 µM with LACV (setting [9]) and more than 120 µM in the series on ZIKV (Zika virus, Vero C1008, 48 h). Further, the “LACV EC50” value in the series with LACV is given as “activity against LACV”. Moreover, the “ZIKV EC50” value in the series on ZIKV is given as “not the unrelated flavivirus, Zika virus”. This molecule also came in with an IC50 on Human RNase H1 of 46 µM. The MIC80 turned out to be 44 µM (≈ 11.5 µg/mL) in the series with Staphylo-coccus spp., 25 µM (≈ 6.56 µg/mL) in the series on E. coli and 11 µM (≈ 2.89 µg/mL) in the series with C. neoformans. Also, the CC50 in the series with Vero cells (African green monkey) is 111 µM; in the series “in vitro [3]” (Vero CC50) it was more than 120 µM; in “in vitro [4]”, 119 µM.

For the molecule `Cc1cc(O)c(=O)c(O)cc1C(=O)c1ccco1` [Compound 309], the EC50 is 1.6 µM in the series with RVFV strain MP-12 [1] (setting [6]); 1.6 µM in the series on RVFV strain MP-12 [1] (setting [7]); 5.9 µM with RVFV strain MP-12 [2]; 14.6 µM in the series with LACV (setting [9]); more than 120 µM in the series on ZIKV (Zika virus, Vero C1008, 48 h). Further, the “LACV EC50” value in the series on LACV was “activity against LACV”. For the same molecule, the “ZIKV EC50” value in the series on ZIKV is given as “not the unrelated flavivirus, Zika virus”. The CC50 in the series “in vitro [3]” (CC50) is more than 120 µM; in the series “in vitro [3]” (Vero CC50), more than 120 µM; in “in vitro [4]” it was 98.1 µM.

Turning to `CCCCSc1ccc(SCCCC)c(O)c(=O)c1O` [Compound 694], the EC50 is 3.7 µM with RVFV strain MP-12 [1] (setting [6]) and 5.62 µM in the series with RVFV MP-12 (Rift Valley fever virus, Vero). Further, the MIC80 was found to be 9 µM (≈ 2.83 µg/mL) with Staphylo-coccus spp. and 2.3 µM (≈ 0.723 µg/mL) with C. neoformans. The CC50 in the series with Vero cells (African green monkey) was 22.1 µM; in the series “in vitro [3]” (CC50) it was more than 120 µM; in “in vitro [5]”, 1.8 µM.

Regarding `CC(C)Sc1ccc(SC(C)C)c(O)c(=O)c1O` [Compound 696], the concentration for a half-maximal effect (EC50) with RVFV strain MP-12 [1] (setting [6]) was 6 µM; in the series with RVFV MP-12 (Rift Valley fever virus, Vero), 12 µM. Besides, the MIC80 in the series with Staphylo-coccus spp. was found to be 13 µM (≈ 3.72 µg/mL); in the series with E. coli it was 20 µM (≈ 5.73 µg/mL); with C. neoformans, 1.5 µM (≈ 0.43 µg/mL). This molecule came in with a CC50 in “in vitro [5]” of 14.1 µM.

As to `Cc1cc(O)c(=O)c(O)cc1C(=O)N1CCN(C(c2ccc(F)cc2)c2ccc(F)cc2)CC1` [Compound 1017], the concentration for a half-maximal effect (EC50) with RVFV strain MP-12 [1] (setting [6]) was 8 µM; with RVFV MP-12 (Rift Valley fever virus, Vero) it was 3.44 µM. This molecule registered an IC50 against Human RNase H1 of 30 µM. The MIC80 in the series with C. neoformans amounted to 6 µM (≈ 2.8 µg/mL). Besides, the CC50 in the series with Vero cells (African green monkey) was 54.7 µM; in the series “in vitro [3]” (CC50) it was more than 120 µM; in “in vitro [5]” it was 3.9 µM.

Turning to `O=c1nc(NO)ccn1[C@@H]1O[C@H](CO)[C@@H](O)[C@H]1O` [EIDD-1931, β-D-N4-Hydroxycytidine, reference compound], the EC50 in the series with RVFV strain MP-12 [1] (read-out: EC50) was 5.16 µM and 5.2 µM; in the series with RVFV MP-12, 5 µM; in the series on RVFV ZH501 (read-out: EC50), 30.5 µM; with LACV, 3.6 µM; in the series with ZIKV, 1.7 µM and 1.74 µM. This molecule displayed a CC50 in the series with Vero cells of more than 120 µM.

Turning to `NC(=O)c1ncn([C@@H]2O[C@H](CO)[C@@H](O)[C@H]2O)n1` [Ribavirin, reference compound], the EC50 was 22 µM in the series on RVFV strain MP-12 [1] (setting [6]); 22 µM in the series on RVFV MP-12 (Rift Valley fever virus, Vero); 73.6 µM in the series on RVFV ZH501 (setting [8]). The same molecule returned a CC50 in the series “in vitro [3]” (CC50) of more than 120 µM.

(Values after PMC9481026 (PLoS ONE, 2022).)
